Measurements published in ChEMBL document CHEMBL1909046, “DrugMatrix in vitro pharmacology data”.

Columns and labels:
Melanocortin receptor 4 = Melanocortin receptor 4 (Homo sapiens, UniProt P32245); format: cell membranes, Membrane; conditions: hek293; note: in other assays of this panel Not Active means under 50% inhibition at 10 µM
[1] = target: cGMP-specific 3',5'-cyclic phosphodiesterase (Homo sapiens, UniProt O76074); experiment: DRUGMATRIX: Phosphodiesterase PDE5 enzyme inhibition (substrate: [3H]cGMP + cGMP); format: tissue-based; conditions: platelet; Not Active = under 50% inhibition at 10 µM
Glycine receptor = Glycine receptor (Rattus norvegicus, UniProt P22771+P24524+P07727+P20781); format: cell membranes, Wistar, Spinal cord, Membrane; note: in other assays of this panel Not Active means under 50% inhibition at 10 µM
[2] = target: Receptor tyrosine-protein kinase erbB-2 (Homo sapiens, UniProt P04626); experiment: biochemical; format: cell-based, Insect cells; conditions: insect cells;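 note: inhibition of HER2 kinase enzyme activity, measured with Poly(Glu:Tyr) as the phosphorylation substrate; in other assays of this panel Not Active means under 50% inhibition at 10 µM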
Sequence of Receptor tyrosine-protein kinase erbB-2 (P04626 whole entry): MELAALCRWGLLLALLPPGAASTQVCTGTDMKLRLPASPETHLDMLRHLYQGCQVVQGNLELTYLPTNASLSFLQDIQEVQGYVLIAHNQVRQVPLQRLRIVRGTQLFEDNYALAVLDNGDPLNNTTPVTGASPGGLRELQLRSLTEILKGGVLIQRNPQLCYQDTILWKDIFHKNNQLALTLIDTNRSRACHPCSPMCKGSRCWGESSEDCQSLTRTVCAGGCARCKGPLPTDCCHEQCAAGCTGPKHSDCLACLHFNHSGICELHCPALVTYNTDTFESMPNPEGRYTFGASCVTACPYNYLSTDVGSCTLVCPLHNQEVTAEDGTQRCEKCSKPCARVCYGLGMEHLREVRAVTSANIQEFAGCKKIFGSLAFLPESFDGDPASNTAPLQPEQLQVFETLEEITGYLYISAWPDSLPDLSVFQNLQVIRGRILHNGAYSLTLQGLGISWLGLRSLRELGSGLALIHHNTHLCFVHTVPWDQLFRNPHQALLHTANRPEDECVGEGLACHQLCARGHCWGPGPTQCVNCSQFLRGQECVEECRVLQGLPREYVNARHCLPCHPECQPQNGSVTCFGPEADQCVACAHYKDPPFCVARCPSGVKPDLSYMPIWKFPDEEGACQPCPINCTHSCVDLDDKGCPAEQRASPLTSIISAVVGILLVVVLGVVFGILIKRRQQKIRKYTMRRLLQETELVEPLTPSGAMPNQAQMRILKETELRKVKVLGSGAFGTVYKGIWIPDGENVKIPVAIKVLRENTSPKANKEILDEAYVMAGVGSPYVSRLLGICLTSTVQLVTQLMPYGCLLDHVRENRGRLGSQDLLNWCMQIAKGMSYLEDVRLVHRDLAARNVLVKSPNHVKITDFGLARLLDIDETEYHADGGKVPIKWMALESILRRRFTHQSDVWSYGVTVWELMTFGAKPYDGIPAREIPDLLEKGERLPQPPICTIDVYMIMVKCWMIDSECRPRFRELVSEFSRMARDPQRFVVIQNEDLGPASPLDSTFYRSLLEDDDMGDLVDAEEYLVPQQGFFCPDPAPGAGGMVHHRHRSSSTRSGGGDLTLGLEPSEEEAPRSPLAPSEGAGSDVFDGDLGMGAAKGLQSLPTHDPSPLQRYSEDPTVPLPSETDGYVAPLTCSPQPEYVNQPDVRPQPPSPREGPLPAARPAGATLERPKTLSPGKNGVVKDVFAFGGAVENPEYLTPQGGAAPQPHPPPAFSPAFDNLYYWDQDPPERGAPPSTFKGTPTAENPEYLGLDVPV

[3] = target: T1, 5-hydroxytryptamine receptor 2C (Homo sapiens, UniProt P28335); experiment: DRUGMATRIX: Serotonin (5-Hydroxytryptamine) 5-HT2C radioligand binding (ligand: [3H] Mesulergine); format: cell membranes, CHO-K1, Membrane; conditions: cho-k1; Not Active = under 50% inhibition at 10 µM
T1 sequence (P28335 whole entry): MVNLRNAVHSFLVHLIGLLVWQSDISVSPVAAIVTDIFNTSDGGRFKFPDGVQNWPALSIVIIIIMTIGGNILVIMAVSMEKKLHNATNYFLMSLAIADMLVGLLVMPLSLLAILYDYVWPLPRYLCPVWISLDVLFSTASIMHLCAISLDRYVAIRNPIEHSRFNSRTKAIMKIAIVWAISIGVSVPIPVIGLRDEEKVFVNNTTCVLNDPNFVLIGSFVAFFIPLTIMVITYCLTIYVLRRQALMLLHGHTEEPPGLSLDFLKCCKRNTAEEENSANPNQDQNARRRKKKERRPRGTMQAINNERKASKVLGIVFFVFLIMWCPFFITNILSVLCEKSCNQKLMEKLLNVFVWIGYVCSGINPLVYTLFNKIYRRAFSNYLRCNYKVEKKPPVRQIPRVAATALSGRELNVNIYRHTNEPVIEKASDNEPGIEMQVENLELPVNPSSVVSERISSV

[4] = target: C-C chemokine receptor type 2 (Homo sapiens, UniProt P41597); format: cell membranes, CHO-K1, Membrane; conditions: cho-k1; note: in other assays of this panel Not Active means under 50% inhibition at 10 µM
Sequence of C-C chemokine receptor type 2 (P41597 whole entry): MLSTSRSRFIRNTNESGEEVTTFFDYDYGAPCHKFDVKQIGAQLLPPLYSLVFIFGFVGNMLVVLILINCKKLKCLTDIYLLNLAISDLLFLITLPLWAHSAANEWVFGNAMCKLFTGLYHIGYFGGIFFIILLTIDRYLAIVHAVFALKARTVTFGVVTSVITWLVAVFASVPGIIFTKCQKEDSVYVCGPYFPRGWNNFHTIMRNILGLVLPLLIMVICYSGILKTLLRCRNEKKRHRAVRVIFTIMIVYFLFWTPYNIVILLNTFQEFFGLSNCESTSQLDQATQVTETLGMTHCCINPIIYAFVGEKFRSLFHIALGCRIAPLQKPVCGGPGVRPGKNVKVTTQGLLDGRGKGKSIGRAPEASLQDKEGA

[5] = target: T2, C-C chemokine receptor type 4 (Homo sapiens, UniProt P51679); format: cell membranes, Membrane; conditions: chem-1; note: in other assays of this panel Not Active means under 50% inhibition at 10 µM
T2 sequence (P51679 whole entry): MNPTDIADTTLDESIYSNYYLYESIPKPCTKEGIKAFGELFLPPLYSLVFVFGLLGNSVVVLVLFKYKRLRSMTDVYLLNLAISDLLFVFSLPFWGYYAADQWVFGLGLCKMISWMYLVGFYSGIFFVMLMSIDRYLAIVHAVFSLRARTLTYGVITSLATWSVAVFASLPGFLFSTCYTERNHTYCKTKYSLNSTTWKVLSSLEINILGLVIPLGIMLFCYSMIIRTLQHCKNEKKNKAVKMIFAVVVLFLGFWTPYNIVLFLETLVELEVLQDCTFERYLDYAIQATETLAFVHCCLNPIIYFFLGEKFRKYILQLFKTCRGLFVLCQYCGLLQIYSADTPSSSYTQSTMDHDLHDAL

Measured: IC50

Sequence of Melanocortin receptor 4 (P32245 whole entry): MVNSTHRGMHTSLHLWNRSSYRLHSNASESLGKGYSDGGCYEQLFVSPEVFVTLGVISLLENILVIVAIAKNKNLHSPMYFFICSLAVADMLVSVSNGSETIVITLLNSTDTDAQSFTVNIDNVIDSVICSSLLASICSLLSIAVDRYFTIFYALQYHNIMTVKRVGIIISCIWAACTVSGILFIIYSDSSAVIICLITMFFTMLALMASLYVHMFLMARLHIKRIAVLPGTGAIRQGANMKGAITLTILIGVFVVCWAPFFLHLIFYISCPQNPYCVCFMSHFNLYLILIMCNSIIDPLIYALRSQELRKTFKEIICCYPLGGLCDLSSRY

CC(C)Cc1ccc(C(C)C(=O)O)cc1 (configuration not stated) [IBUPROFEN]
Not Active: all assays above

COc1ccc2c(c1)c(CC(=O)O)c(C)n2C(=O)c1ccc(Cl)cc1 [INDOMETHACIN]
Not Active: all assays above

CCc1c2c(nc3ccc(OC(=O)N4CCC(N5CCCCC5)CC4)cc13)-c1cc3c(c(=O)n1C2)COC(=O)[C@]3(O)CC [IRINOTECAN]
Not Active: all assays above

CC(C(=O)O)c1cccc(C(=O)c2ccccc2)c1 (configuration not stated) [KETOPROFEN]
Not Active: all assays above

Nc1ccn([C@@H]2CS[C@H](CO)O2)c(=O)n1 [LAMIVUDINE]
Not Active: all assays above

O=S(=O)([O-])CCS.[Na+] [MESNA]
Not Active: all assays above

C#C[C@]1(O)CC[C@H]2[C@@H]3CCc4cc(OC)ccc4[C@H]3CC[C@@]21C [MESTRANOL]
Not Active: all assays above

CC(=O)Nc1cccc(O)c1 [METACETAMOL]
Not Active: all assays above

Cc1ncc([N+](=O)[O-])n1CCO [METRONIDAZOLE]
Not Active: all assays above

CC(C)(C(=O)c1cccnc1)c1cccnc1 [METYRAPONE]
Not Active: all assays above

Oc1ccc(OCc2ccccc2)cc1 [MONOBENZONE]
Not Active: all assays above

CC(C)(Oc1ccc(C2CCCc3ccccc32)cc1)C(=O)O (configuration not stated) [NAFENOPIN]
Not Active: all assays above

CC(C)[C@H]1CC[C@H](C(=O)N[C@H](Cc2ccccc2)C(=O)O)CC1 [NATEGLINIDE]
Not Active: all assays above

CCN[C@@H]1C[C@H](N)[C@@H](O[C@H]2OC(CN)=CC[C@H]2N)[C@H](O)[C@H]1O[C@H]1OC[C@](C)(O)[C@H](NC)[C@H]1O [NETILMICIN]
Not Active: all assays above

COC(=O)C1=C(C)NC(C)=C(C(=O)OCC(C)C)C1c1ccccc1[N+](=O)[O-] (configuration not stated) [NISOLDIPINE]
Not Active: all assays above

CCOC(=O)C1=C(C)NC(C)=C(C(=O)OC)C1c1cccc([N+](=O)[O-])c1 (configuration not stated) [NITRENDIPINE]
Not Active: all assays above

C#C[C@]1(OC(C)=O)CC[C@H]2[C@@H]3CCC4=CC(=O)CC[C@@H]4[C@H]3CC[C@@]21C [NORETHINDRONE ACETATE]
Not Active: all assays above

COc1ccc2[nH]c([S+]([O-])Cc3ncc(C)c(OC)c3C)nc2c1 (configuration not stated) [OMEPRAZOLE]
Not Active: all assays above

Cc1nccn1CC1CCc2c(c3ccccc3n2C)C1=O (configuration not stated) [ONDANSETRON]
Not Active: all assays above

CCn1cc(C(=O)O)c(=O)c2cc(F)c(N3CCN(C)CC3)cc21 [PEFLOXACIN]
Not Active: all assays above

CCCCOc1ccc(OCCCN2CCOCC2)cc1 [PRAMOXINE]
Not Active: all assays above
